Data set [1] deals with Mus musculus. Briefly: Anticonvulsant activity in Kunming mouse assessed as reduction in ScPTZ-induced seizure at 100 mg/kg, ip administered 0.25 to 2 hrs before ScPTZ stimulation relative to control. Further details: scale not given: the % may be the effect or the level left. The class given is functional.
Data set [2] can be described thus: Drug metabolism in Sprague-Dawley rat assessed as retention time by HPLC/MS analysis. It is filed as ADME.
The species named for data set [3] is Homo sapiens. As to the kind of experiment: Inhibition of human LDH5 at 0.5 mM using sodium pyruvate as substrate by UV-VIS spectrophotometry method relative to control.
Data set [4] can be described thus: Clearance in Sprague-Dawley rat at 20 mg/kg, iv measured upto 480 mins by LC-MS/MS analysis. The class given is ADME, organism-based. Conditions: in vivo.
Data set [5] is described as follows: Clearance in Sprague-Dawley rat at 50 mg/kg, po measured upto 480 mins by LC-MS/MS analysis. Conditions: in vivo. The class given is ADME, organism-based.
Data set [6] concerns Mus musculus. As to the kind of experiment: Anticonvulsant activity in Kunming mouse assessed as reduction in Sc3-MP-induced seizure at 300 mg/kg, ip administered 0.25 and 1 hrs before Sc3-MP stimulation relative to control. It is filed as functional, organism-based.
Data set [7] can be described thus: Half life in Sprague-Dawley rat at 20 mg/kg, po measured upto 480 mins by LC-MS/MS analysis. It is filed as ADME, organism-based. Conditions: in vivo.
The subject of data set [8] is Mus musculus. Briefly: Anticonvulsant activity in Kunming mouse assessed as MES-induced hind limb extension at 50 mg/kg, ip administered 0.5 to 4 hrs before MES stimulation relative to control. It is filed as functional.
Data set [9] can be described thus: Half life in Sprague-Dawley rat at 100 mg/kg, po measured upto 480 mins by LC-MS/MS analysis. It is filed as ADME, organism-based. Conditions: in vivo.
Data set [10] deals with Mus musculus. As to the kind of experiment: Anticonvulsant activity in Kunming mouse assessed as reduction in Sc3-MP-induced seizure ip dosed measured at 0.5 hrs before Sc3-MP stimulation. The class given is functional.
Data set [11] is described as follows: Drug uptake in Sprague-Dawley rat kidney at 50 mg/kg, po. The class given is ADME, organism-based. Conditions: in vivo.
A short description of data set [12]: Drug uptake in Sprague-Dawley rat spleen at 50 mg/kg, po. It is filed as ADME, organism-based. Conditions: in vivo.
Data set [13] in a line: Protective index, ratio of TD50 for neurotoxicity against ip dosed Kunming mouse assessed as time remained in rod measured at 0.5 hrs by rotarod test to ED50 for anticonvulsant activity in ip dosed Kunming mouse assessed as reduction in Sc3-MP-induced seizure administered 0.5 hrs before Sc3-MP stimulation. Conditions: in vivo, read-out: PI. It is filed as toxicity, organism-based. (In the rotarod test animals must keep their balance on a rotating rod.)

Data set [14] is described as follows: Half life in Sprague-Dawley rat at 50 mg/kg, po measured upto 480 mins by LC-MS/MS analysis. The class given is ADME, organism-based. Conditions: in vivo.
Data set [15] in a line: Tmax in Sprague-Dawley rat at 100 mg/kg, po measured upto 480 mins by LC-MS/MS analysis. The class given is ADME, organism-based. Conditions: in vivo.
A short description of data set [16]: Cmax in Sprague-Dawley rat at 50 mg/kg, po measured upto 480 mins by LC-MS/MS analysis. The class given is ADME, organism-based. Details: dose 50 mg/kg, route oral. Conditions: in vivo.
Data set [17] is filed under the species Homo sapiens. Briefly: Inhibition of human LDH1 at 0.5 mM using sodium pyruvate as substrate measured for 60 sec for every 5 mins by LC/MS-MS analysis.
Data set [18] can be described thus: Cmax in Sprague-Dawley rat at 20 mg/kg, po measured upto 480 mins by LC-MS/MS analysis. It is filed as ADME, organism-based. Details: dose 20 mg/kg, route oral. Conditions: in vivo.
For data set [19], the target named is T1, GABA-A receptor; alpha-1/beta-2/gamma-2 (Homo sapiens, UniProt P14867+P18507+P47870).
T1 sequence (P14867 whole entry): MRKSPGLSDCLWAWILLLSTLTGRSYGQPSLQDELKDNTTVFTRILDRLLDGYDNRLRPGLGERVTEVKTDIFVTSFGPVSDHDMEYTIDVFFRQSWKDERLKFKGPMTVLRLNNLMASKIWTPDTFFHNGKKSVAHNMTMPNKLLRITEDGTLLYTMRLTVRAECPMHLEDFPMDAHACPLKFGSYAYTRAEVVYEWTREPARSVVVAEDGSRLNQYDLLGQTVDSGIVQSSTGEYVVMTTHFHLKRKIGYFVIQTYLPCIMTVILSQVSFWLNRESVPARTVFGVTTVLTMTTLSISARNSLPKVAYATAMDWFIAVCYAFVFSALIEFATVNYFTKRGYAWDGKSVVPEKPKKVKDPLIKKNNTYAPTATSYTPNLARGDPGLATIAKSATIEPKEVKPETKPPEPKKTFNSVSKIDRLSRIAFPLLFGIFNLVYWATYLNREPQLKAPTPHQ
T1 sequence (P47870 whole entry): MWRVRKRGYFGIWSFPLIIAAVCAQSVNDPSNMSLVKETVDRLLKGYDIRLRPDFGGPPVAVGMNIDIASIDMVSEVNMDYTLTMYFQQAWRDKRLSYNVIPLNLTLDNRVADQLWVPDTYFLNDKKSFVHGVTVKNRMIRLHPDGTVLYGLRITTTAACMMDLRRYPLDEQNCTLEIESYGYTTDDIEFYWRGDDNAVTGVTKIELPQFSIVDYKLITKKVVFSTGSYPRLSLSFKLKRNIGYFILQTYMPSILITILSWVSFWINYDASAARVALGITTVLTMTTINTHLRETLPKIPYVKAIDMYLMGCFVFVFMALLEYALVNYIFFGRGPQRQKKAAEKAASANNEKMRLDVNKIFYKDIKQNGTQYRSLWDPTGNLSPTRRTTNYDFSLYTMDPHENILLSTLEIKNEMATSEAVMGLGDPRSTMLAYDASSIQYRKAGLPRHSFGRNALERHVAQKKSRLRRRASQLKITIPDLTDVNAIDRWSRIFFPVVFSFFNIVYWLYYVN
T1 sequence (P18507 whole entry): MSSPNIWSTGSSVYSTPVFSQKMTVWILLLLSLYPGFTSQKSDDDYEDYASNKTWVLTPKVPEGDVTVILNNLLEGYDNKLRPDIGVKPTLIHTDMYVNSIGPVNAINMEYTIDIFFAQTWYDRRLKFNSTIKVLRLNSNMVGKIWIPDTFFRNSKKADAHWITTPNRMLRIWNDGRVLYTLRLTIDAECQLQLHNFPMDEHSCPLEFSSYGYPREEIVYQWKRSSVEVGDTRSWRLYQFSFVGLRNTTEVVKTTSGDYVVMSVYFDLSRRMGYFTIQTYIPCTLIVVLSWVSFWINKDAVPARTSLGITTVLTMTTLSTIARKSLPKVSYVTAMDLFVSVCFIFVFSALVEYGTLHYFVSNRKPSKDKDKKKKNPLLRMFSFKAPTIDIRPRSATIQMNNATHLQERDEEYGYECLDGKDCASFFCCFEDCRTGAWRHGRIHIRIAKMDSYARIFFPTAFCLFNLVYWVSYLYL
As to the kind of experiment: Agonist activity at GABA alpha1beta2gamma2 receptor in human HEK293T at -50 mV holding potential by whole cell voltage clamp assay. It is filed as protein-complex assay.

The subject of data set [20] is Mus musculus. As to the kind of experiment: Potency index, ratio of ED50 of carbamazepine to ED50 of compound anticonvulsant activity in ip dosed Kunming mouse assessed as MES-induced hind limb extension administered 0.5 hrs before MES stimulation. The class given is functional.
Data set [21] deals with Mus musculus. Briefly: Anticonvulsant activity in Kunming mouse assessed as reduction in ScPTZ-induced seizure at 100 mg/kg, ip administered 0.5 hrs before ScPTZ stimulation relative to control. It is filed as functional. Details: scale not given: the % may be the effect or the level left.
The subject of data set [22] is Mus musculus. Briefly: Anticonvulsant activity in Kunming mouse assessed as MES-induced hind limb extension at 100 mg/kg, ip administered 3 hrs before MES stimulation. The class given is functional, organism-based.
Data set [23] in a line: Noncompetitive inhibition of human LDH1 at 0.5 mM using sodium pyruvate as substrate by UV-VIS spectrophotometry method based Lineweaver-Burk plot analysis.

Several values for one entry are separate records, joined by “and”; a condition that tells them apart may be missing. Identical values can stand only once. Activity calls are given as the source filed them. Some results are limits rather than exact numbers.

The record followed here is ChEMBL document CHEMBL4311969, “Polygala tenuifolia-Acori tatarinowii herbal pair as an inspiration for substituted cinnamic α-asaronol esters: Design, synthesis, anticonvulsant activity, and inhibition of lactate dehydrogenase study” (Eur J Med Chem, 2019).

The inhibition is the share of the control response that was lost under treatment. The term clearance denotes the rate of elimination divided by the concentration. In general, CL/F refers to the apparent clearance, not corrected for the fraction that reaches the circulation. What is called half-life is the time needed for the level to fall by half in the phase considered. One may read the ED50 as the midpoint of the dose-response relation. For orientation: Tmax means the time from dosing to the highest level. Broadly, the Cmax is the highest concentration seen after dosing. One may read the EC50 as the concentration at which the effect is half-maximal. Broadly, the Ki is the dissociation constant of the complex between target and ligand, obtained from inhibition or displacement.

As to `COc1cc(OC)c(OC)cc1/C=C/COC(=O)/C=C/c1c(OC)cc(OC)c(OC)c1OC`, the Activity is listed as 25% in the data set on Mus musculus [1] and 50% in the data set on Mus musculus [8]. In addition, the Retention_time in data set [2] amounted to 40.6 min. The inhibition in the data set listed under Homo sapiens [3] came out at 27%; in the data set filed under Homo sapiens [17] it was 21%. Further, the clearance in data set [4] was 140 mL/min/kg. Further, the CL/F in [5] came to 450 mL/min/kg. In addition, the outcome in the data set with Mus musculus [6] was Active. The half-life in data set [7] amounted to 57.9 min; in data set [9], 58.5 min; in data set [14], 59.2 min. Moreover, the ED50 in the data set on Mus musculus [10] is 203 mg/kg and 428 µmol/kg. Moreover, the Drug uptake result in [11] and in [12] was “Active” in each case. The selectivity ratio at 0.5 h in data set [13] came to 4.6. Further, the Tmax in data set [15] was 38.8 min. Moreover, the results for the Cmax in [16] and in data set [18] were 2040 ng/mL and 980 ng/mL, respectively. For the same compound, the EC50 in [19] stood at 46.3 µM.
Take `COc1cc(OC)c(OC)cc1/C=C/COC(=O)/C=C/c1cc(OC)c(OC)c(OC)c1OC`: the Activity in the data set with Mus musculus [1] came out at 25%; in the data set on Mus musculus [8], 50%; in the data set with Mus musculus [21] it was 100%. Besides, the inhibition came to 15% in the data set filed under Homo sapiens [3] and 18% in the data set listed under Homo sapiens [17]. For the same compound, the clearance in data set [4] came to 160 mL/min/kg. Besides, the CL/F in data set [5] came to 480 mL/min/kg. In addition, the result with Mus musculus [6] and in the data set on Mus musculus [22] was Active. The half-life in data set [7] stood at 55.8 min; in data set [9], 57 min; in [14], 58.5 min. For the same compound, the “Ratio ED50” value with Mus musculus [20] was determined as 1.17. Moreover, the ED50 in the data set with Mus musculus [10] is > 200 mg/kg and > 422 µmol/kg. Moreover, in data set [13], the selectivity ratio at 0.5 h was over 5.3. Also, the Tmax in data set [15] is 36.2 min. For the same compound, the figures for the Cmax in data set [16] and in data set [18] were 1890 ng/mL and 880 ng/mL, respectively. In data set [23], the affinity, expressed as Ki, was 1.77 µM.
